Measurements reported in patent US6929685B2, “Alkylamine derivatives as antifouling agents” (Bayer Atiengesellschaft, priority 2001, dated 2005).

How the values were obtained:
[1] = test system: cyprid larvae of the barnacle Balanus amphitrite; assay: Settlement assay, cyprid larvae of the barnacle; format: in vivo; settings: Balanus amphitrite cyprids, seawater, 27° C., Spearman-Karber
Protocol: The rate of settlement of laboratory reared cyprid larvae of the barnacle Balanus amphitrite was determined for testing the activity of candidate antifouling compounds. Settlement Assay Tests are carried out in four replicates in sterile polystyrene multi well plates. Between 25 and 40 cyprid larvae are injected in the dishes containing either 2 ml of test solution (see below), solvent control or a positive control (dichloro-n-octyl-isothiazolinone). Dishes are incubated for 24 h at a temperature of 27° C. ±2. After incubation the cyprids are screened for signs of toxicity. The test is terminated by addition of a drop of 20% formaldehyde and the numbers of settled and non-settled larvae are counted. Settlement is evaluated as follows: 1) non settled: not attached free-swimming cyprids, 2) settled cyprids: attached, but not metamorphosed cyprids, 3) barnacles: attached juvenile barnacles. Categories 2 and 3 are considered to be settled. Percentage settlement in test solution is compared with controls. Estimates of the median effect concentration (EC50) after […] are calculated using the Spearman-Karber method. All seawater used is of natural origin and filtered unto 0.2 μm. Stock solutions of test compounds are prepared by dissolving an amount of test substance in a suitable solvent and subsequent addition of seawater. […]

fouling organisms = assay: Raft panel static immersion test of antifouling paints: overall; set-up: key: good (G); satisfactory (S); failure (F); settings: Dutch harbor, sea water
Text: (§1) The prepared paints have been evaluated on can stability, adhesion and film defects. The antifouling performance has been tested by application of the paints on raft panels. At first the steel panels had been protected with a standard anticorrosive system for marine environments (300 μm in dft). The to be tested antifouling paint had been applied in 2 layers with a total dry film thickness between 200 and 300 μm. Finally the panels were subjected to a static immersion test on rafts at sea harbors in Holland. The paints were inspected for the presence of fouling (% of area covered with fouling organisms) and of film defects every two months. The tested paint formulations are represented in Table 1.
(§2) Further explanations to Table 1: • 1. Model coatings of type 1 (MC-1A/B/C) are for the evaluation of the algicidal properties of the claimed structures at three different representative weight-% next to 35% cuprous oxide. Good performing references are model coating MC-2 and MC-3 [35% cuprous oxide+3% Seanine (MC-2) or 35% cuprous oxide+3% Irgarol (MC-3)]. Base level references are “cuprous oxide only” formulations [cuprous oxide only (35% (MC4) and 50% level (MC-5)]. • 2. Model coatings of type 6 and 7 are for the evaluation of the activity of the claimed structures against “hard fouling” in combination with two different types of algicides: claimed structure (1/2/4%; MC-6-A/B/C)+3% Seanine or claimed structure (1/2/4%; MC-7-A/B/C)+3% Irgarol). Base level references are “algicide only” formulations with 3% Seanine (MC-8) or 3% Irgarol (MC-9).
(§3) 3. Model coatings of type 10 (MC-10A/B) evaluate the total spectrum of biocidal activity by using the claimed structure as only biocide at 2 levels (4 and 8 w %). Good performing references are “cuprous oxide only” formulations [cuprous oxide 35% (MC-4) and 50% (MC-5)]. As blank serves model coating 11 (MC-1 1) containing no biocide at all.
(§4) The claimed structures were tested at several levels of dosage with and without an algicide as co-biocide. The following formulations were used for comparison: formulations with cuprous oxide, formulations with cuprous oxide and commercial co-biocides, a blank and two formulations that only contained the co-biocide and finally a commercial tributyltin-releasing self polishing system.
(§5) An even better protection can be obtained by combining claimed structures with co-biocides like the algicides that are commonly used for antifoulings.

algae = assay: Raft panel static immersion test of antifouling paints: algae; set-up: key: G: Not present; Some light slime; F: Overall covered; settings: Dutch harbor, sea water
Text: as §1, §2, §3, §4, §5

slime = assay: Raft panel static immersion test of antifouling paints: slime; set-up: key: G: Not present; Some light slime; F: Overall covered; settings: Dutch harbor, sea water
Text: as §1, §2, §3, §4, §5

hard fouling = assay: Raft panel static immersion test of antifouling paints: hard fouling; set-up: key: G: Not present; Some light slime; F: Overall covered; settings: Dutch harbor, sea water
Text: as §1, §2, §3, §4, §5

[2] = model coating 1A: 35% Cu2O + 1% of compound
[3] = model coating 1B: 35% Cu2O + 2% of compound
[4] = model coating 1C: 35% Cu2O + 3% of compound
[5] = model coating 6A: 1% of compound + 3% Seanine
[6] = model coating 6B: 2% of compound + 3% Seanine
[7] = model coating 6C: 4% of compound + 3% Seanine
[8] = model coating 7A: 1% of compound + 3% Irgarol
[9] = model coating 7B: 2% of compound + 3% Irgarol
[10] = model coating 7C: 4% of compound + 3% Irgarol
[11] = model coating 10A: 4% of compound as only biocide
[12] = model coating 10B: 8% of compound as only biocide

## C=CCCCCCCCCCNC=O [Compound 8, N-formyl-1-aminoundec-10-ene]
[1]
  EC50 for settlement inhibition in ppm: 0.60 ppm
Fouling organisms; [2]
  Performance (1 yr immersed) Overall: S
Fouling organisms; [3]
  Performance (1 yr immersed) Overall: S
Fouling organisms; [4]
  Performance (1 yr immersed) Overall: G
Fouling organisms; [5]
  Performance (1 yr immersed) Overall: F
Fouling organisms; [6]
  Performance (1 yr immersed) Overall: S
Fouling organisms; [7]
  Performance (1 yr immersed) Overall: G
Fouling organisms; [8]
  Performance (1 yr immersed) Overall: F
Fouling organisms; [9]
  Performance (1 yr immersed) Overall: S
Fouling organisms; [10]
  Performance (1 yr immersed) Overall: S
Fouling organisms; [11]
  Performance (1 yr immersed) Overall: F
Fouling organisms; [12]
  Performance (1 yr immersed) Overall: S
algae; [3]
  Performance (1 yr immersed) Algae: G
algae; [4]
  Performance (1 yr immersed) Algae: G
algae; [5]
  Performance (1 yr immersed) Algae: G
algae; [6]
  Performance (1 yr immersed) Algae: G
algae; [7]
  Performance (1 yr immersed) Algae: G
algae; [8]
  Performance (1 yr immersed) Algae: G
algae; [9]
  Performance (1 yr immersed) Algae: G
algae; [10]
  Performance (1 yr immersed) Algae: G
slime; [2]
  Performance (1 yr immersed) Slime: S
slime; [3]
  Performance (1 yr immersed) Slime: S
slime; [4]
  Performance (1 yr immersed) Slime: G
slime; [5]
  Performance (1 yr immersed) Slime: S
slime; [6]
  Performance (1 yr immersed) Slime: S
slime; [7]
  Performance (1 yr immersed) Slime: G
slime; [8]
  Performance (1 yr immersed) Slime: S
slime; [9]
  Performance (1 yr immersed) Slime: S
slime; [10]
  Performance (1 yr immersed) Slime: S
slime; [11]
  Performance (1 yr immersed) Slime: F
slime; [12]
  Performance (1 yr immersed) Slime: S
Hard fouling; [2]
  Performance (1 yr immersed) Hard fouling: G
Hard fouling; [3]
  Performance (1 yr immersed) Hard fouling: G
Hard fouling; [4]
  Performance (1 yr immersed) Hard fouling: G
Hard fouling; [7]
  Performance (1 yr immersed) Hard fouling: G
Hard fouling; [12]
  Performance (1 yr immersed) Hard fouling: G
